Like-named read-outs stand apart in the source and are kept apart here.
Assays:
cortical neurons [1] = assay: LDH release after 1 hr oxygen-glucose deprivation combined with acidosis; type: cell-based, mouse; settings: n=8-11
Method: To determine if activation of ASICs in ischemic conditions produced greater neuronal injury, neurons from P1 ASIC1^+/+ and ASIC1^−/− mice were subjected to 1 hr acid treatment under oxygen and glucose deprivation.
(§1) Following anesthesia with halothane, cerebral cortices were dissected from PI ASIC1^+/+ and ASIC1^−/− mice and incubated with 0.05% trypsin-EDTA for 10 min at 37° C. Tissues were then triturated with fire-polished glass pipettes and plated on poly-L-ornithine-coated 24-well plates or 25×25 mm glass coverslips at a density of 2.5×10^5 cells per well or 10^6 cells per coverslip. Neurons were cultured with MEM supplemented with 10% horse serum (for E16 cultures) or Neurobasal medium supplemented with B27 (for P1 cultures) and used for electrophysiology and toxicity studies after 12 days. Glial growth was suppressed by addition of 5-fluoro-2-deoxyuridine and uridine, yielding cultured cells with ˜90% neurons as determined by NeuN and GFAP staining (data not shown).
[…]. Oxygen-glucose deprivation was terminated after 1 hr by replacing the glucose-free ECF with Neurobasal medium and incubating the cultures in a normal cell culture incubator.
Aarts et al. (2003) have recently studied ischemia molded by prolonged oxygen-glucose deprivation (2 hr) but without acidosis. […]

[2] = tested on: cortical neurons cultured from ASIC+/+ and ASIC1-/- mice; assay: LDH release in neurons cultured from ASIC+/+ and ASIC1-/- mice; type: cell-based, mouse; settings: ASIC1-/- neurons, 1 hr 1 mM NMDA+10 μM glycine, Mg2+-free pH 7.4 ECF, n=4
Method: as §1
Cells were treated with either pH 7.4 or 6.0 ECF for 1 hr. LDH release was measured 24 hr after acid incubation. […] Background absorbance at 620 was subtracted.

[3] = tested on: transient focal ischemia (middle cerebral artery occlusion); settings: mouse, in vivo; for percentage of the infarct: iv
Method: Ischemia was induced by introducing a coated filament (6.0; Doccol) from the external carotid artery into the internal carotid artery and advancing it into the arterial Will's Circle, thereby occluding the middle cerebral artery (32). Rectal and temporalis muscle temperature was maintained at 37° C.±0.5° C. with a thermostatically controlled heating pad and lamp. Cerebral blood flow was monitored by transcranial laser doppler. All surgical procedures were performed under an operating stereomicroscope.

[4] = mouse, in vivo
Method: We have, therefore, measured brain pH continuously with a fiber optic pH sensor in the ipsilateral and contralateral parietal cortex of mice immediately after the removal of the middle cerebral artery suture, to determine the degree, distribution, and the time course of acidosis following focal ischemia. Cerebral pH was evaluated in sham-operated animals, in vehicle-treated animals, in PcTX venom-treated animals, and in sodium bicarbonate treated animals. Values are mean±SE (n=3 for each group).
(§2) Cerebral blood flow was monitored by transcranial laser doppler. All surgical procedures were performed under an operating stereomicroscope.
For continuous measurement of pH in the brain, a fiber optic pH micro system (pHOptica, WPI) was used. This system has a pH range between 5 and 9, and the resolution is ±0.003 units. A glass-fiber with its pH-sensitive tip ([…]) was stereotaxically implanted into the brain immediately after the middle cerebral artery occlusion at the following coordinates from the bregma: 2.4 mm laterally, 0.1 posteriorly and 2.2 mm deep. pH was continuously measured for 6 h. The instrument was calibrated with standard solutions (pH 4.0, 5.0, 6.0, 7.0, 8.0, and 9.0) before and after the experiments. […] Changes in pH values were evaluated after PcTX and NaHCO3 intracerebroventricularly or intravenous administration 2 hours after occlusion.

[5] = tested on: transient focal ischemia (middle cerebral artery occlusion); type: in vivo, mouse; settings: for percentage of the infarct volume: vehicle 50.6±2.3
Method: To investigate the potential interaction between NMDA and ASIC1a blockade on infarct volume, memantine was administered before or after PcTX administration in rodents subjected to 60 min of middle cerebral artery occlusion and evaluated one day after ischemia induction.
as §2
Rodents were treated with saline, PcTX and/or memantine according to the following schedule: Saline IP administered 30 min after middle cerebral artery occlusion; PcTX 15: (0.5 μL, 500 ng/mL) administered 15 min after middle cerebral artery occlusion; Memantine 30 (1 mL, 10 mg/kg) administered 30 min after middle cerebral artery occlusion; PcTx15 min/Memantine 30, 60 120; PcTX (0.5 μL, 500 ng/mL) administration 15 min after middle cerebral artery occlusion followed by IP Memantine (1 mL, 10 mg/kg) administration 30 min, 60 min, or 120 min after PcTX. Memantinel 5/PcTx 180, 300, 360: Memantine (1 mL, 10 mg/kg) administration IP 15 min after middle cerebral artery occlusion followed by intracerebraventricular PcTX (0.5 μL, 500 ng/mL) 180 min, 300 min, or 360 min after Memantine. N=5 animals per group.
FIG. 18 is a graph presenting exemplary data from experiments measuring the percentage of brain infarct volume as a function of the time (in minutes) of administration of memantine after mid-cerebral artery occlusion, in accordance with aspects of the present teachings. Memantine's time window (1 mL, 10 mg/kg). Memantine (0.1 mL, 10 mg/kg) or saline solution (1 mL) was IP-administered 15 minutes, 1 h, or 3 h after ischemia induction. […] Each column represents the mean±SE of the percentage of the infarct compared to the ipsilateral hemisphere.

[6] = tested on: 60 min middle cerebral artery occlusion; assay: Mouse 60 min middle cerebral artery occlusion, memantine with or without PcTX venom, infarct volume; type: in vivo; settings: n=5
cortical neurons [7] = type: cell-based, mouse; settings: preincubation 1 μM, n=6

Compound: COC(=O)[C@@H](N)CCCNC(=N)N[N+](=O)[O-] [L-NAME]
- combined 1 hr oxygen-glucose deprivation/acidosis-induced neuronal injury (cortical neurons [1]; 300 μM): neither trolox (500 μM) nor L-NAME (300 μM) had significant effect

Compound: CN[C@H](CC(=O)O)C(=O)O [NMDA]
- LDH release at 24 hr, % of maximal [2]: 84.8%±1.4%

Compound: O=C([O-])O.[Na+] [bicarbonate, sodium bicarbonate]
- relative infarct volume [3]: 34.5±1.27%
- percentage of the infarct ([3]; 2.5 mg/kg): 61.51±5.03%
- percentage of the infarct ([3]; 5 mg/kg): 55.4±7.89%
- brain pH value after administration [4]: 7.25±0.25
- modifying brain pH ([4]; iv): less effective

Compound: CC12CC3CC(C)(C1)CC(N)(C3)C2 [memantine]
- percentage of the infarct volume ([5]; 1 mg/kg 1 h after MCAO, n=5): 55.4±5.2
- percentage of the infarct volume ([5]; 10 mg/kg 1 h after MCAO, n=5): 41.0±3.4
- percentage of the infarct volume ([5]; 30 mg/kg 1 h after MCAO, n=5): 43.4±3.8
- survival of treated ischemic mice ([5]; 100 mg/kg, n=5, all the mice): died
- infarct volume ([5]; memantine alone ip 1 h after MCAO (time window, FIG. 18), saline 50.6±2.3, n=5): 40.3±4.3%
- infarct volume ([6]; ASIC1-/- mice, memantine ip): 27.7±1.6 mm^3
- infarct volume ([6]; ASIC+/+ mice, 10 mg/kg ip, saline 101.4±9.4): 61.6±12.7 mm^3
- infarct volume ([6]; memantine 10 mg/kg ip + aCSF icv, control 123.6±5.3): 73.8±6.9 mm^3

Compound: C/C=C(/C)C(=O)O[C@H]1C(C)=C2[C@H]([C@@H]1OC(=O)CCCCCCC)[C@@](C)(OC(C)=O)C[C@H](OC(=O)CCC)[C@@]1(O)[C@H]2OC(=O)[C@@]1(C)O [thapsigargin]
- sustained component of acid-induced Ca2+ increase (cortical neurons [7]): partially inhibited

Compound: Cc1c(C)c2c(c(C)c1O)CCC(C)(C(=O)O)O2 (centres unmarked) [trolox]
- combined 1 hr oxygen-glucose deprivation/acidosis-induced neuronal injury (cortical neurons [1]; 500 μM): neither trolox (500 μM) nor L-NAME (300 μM) had significant effect

Reference: US8030442B2, “Treatment of injury to the brain by inhibition of acid sensing ion channels” (priority 2004, dated 2011)
